Reference: ChEMBL document CHEMBL4346703, “Structure Overhaul Affords a Potent Purine PI3Kδ Inhibitor with Improved Tolerability” (J Med Chem, 2019)

Experiments:
[1] = target: PI3-kinase p110-alpha/p85-alpha (Homo sapiens, UniProt P42336); assay: Inhibition of N-terminal His6-tagged recombinant full length human p110alpha/untagged recombinant full length human p85alpha expressed in baculovirus infected Sf21 insect cells using PIP2 as substrate preincubated for 15 mins followed by substrate addition and measured after 1 hr by HTRF assay
PI3-kinase p110-alpha/p85-alpha, sequence (P27986 whole entry): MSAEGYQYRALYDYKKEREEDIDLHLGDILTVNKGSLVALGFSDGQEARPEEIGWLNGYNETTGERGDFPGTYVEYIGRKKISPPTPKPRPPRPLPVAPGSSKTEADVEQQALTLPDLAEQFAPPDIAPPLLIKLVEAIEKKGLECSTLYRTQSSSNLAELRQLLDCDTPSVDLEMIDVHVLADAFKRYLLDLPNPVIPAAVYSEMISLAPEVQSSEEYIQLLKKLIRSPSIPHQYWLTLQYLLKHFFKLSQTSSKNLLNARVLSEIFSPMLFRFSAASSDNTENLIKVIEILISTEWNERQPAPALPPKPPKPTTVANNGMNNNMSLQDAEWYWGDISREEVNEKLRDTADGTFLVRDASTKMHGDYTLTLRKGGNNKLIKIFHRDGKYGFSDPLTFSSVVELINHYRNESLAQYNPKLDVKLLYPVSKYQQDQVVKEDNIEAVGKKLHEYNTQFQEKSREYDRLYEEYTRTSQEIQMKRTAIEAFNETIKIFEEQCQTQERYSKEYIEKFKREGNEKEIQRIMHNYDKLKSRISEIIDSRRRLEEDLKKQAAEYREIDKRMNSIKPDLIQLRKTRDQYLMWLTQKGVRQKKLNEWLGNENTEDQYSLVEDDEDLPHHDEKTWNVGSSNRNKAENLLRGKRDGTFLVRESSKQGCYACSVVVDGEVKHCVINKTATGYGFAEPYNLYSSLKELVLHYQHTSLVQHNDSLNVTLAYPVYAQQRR
PI3-kinase p110-alpha/p85-alpha, sequence (P42336 whole entry): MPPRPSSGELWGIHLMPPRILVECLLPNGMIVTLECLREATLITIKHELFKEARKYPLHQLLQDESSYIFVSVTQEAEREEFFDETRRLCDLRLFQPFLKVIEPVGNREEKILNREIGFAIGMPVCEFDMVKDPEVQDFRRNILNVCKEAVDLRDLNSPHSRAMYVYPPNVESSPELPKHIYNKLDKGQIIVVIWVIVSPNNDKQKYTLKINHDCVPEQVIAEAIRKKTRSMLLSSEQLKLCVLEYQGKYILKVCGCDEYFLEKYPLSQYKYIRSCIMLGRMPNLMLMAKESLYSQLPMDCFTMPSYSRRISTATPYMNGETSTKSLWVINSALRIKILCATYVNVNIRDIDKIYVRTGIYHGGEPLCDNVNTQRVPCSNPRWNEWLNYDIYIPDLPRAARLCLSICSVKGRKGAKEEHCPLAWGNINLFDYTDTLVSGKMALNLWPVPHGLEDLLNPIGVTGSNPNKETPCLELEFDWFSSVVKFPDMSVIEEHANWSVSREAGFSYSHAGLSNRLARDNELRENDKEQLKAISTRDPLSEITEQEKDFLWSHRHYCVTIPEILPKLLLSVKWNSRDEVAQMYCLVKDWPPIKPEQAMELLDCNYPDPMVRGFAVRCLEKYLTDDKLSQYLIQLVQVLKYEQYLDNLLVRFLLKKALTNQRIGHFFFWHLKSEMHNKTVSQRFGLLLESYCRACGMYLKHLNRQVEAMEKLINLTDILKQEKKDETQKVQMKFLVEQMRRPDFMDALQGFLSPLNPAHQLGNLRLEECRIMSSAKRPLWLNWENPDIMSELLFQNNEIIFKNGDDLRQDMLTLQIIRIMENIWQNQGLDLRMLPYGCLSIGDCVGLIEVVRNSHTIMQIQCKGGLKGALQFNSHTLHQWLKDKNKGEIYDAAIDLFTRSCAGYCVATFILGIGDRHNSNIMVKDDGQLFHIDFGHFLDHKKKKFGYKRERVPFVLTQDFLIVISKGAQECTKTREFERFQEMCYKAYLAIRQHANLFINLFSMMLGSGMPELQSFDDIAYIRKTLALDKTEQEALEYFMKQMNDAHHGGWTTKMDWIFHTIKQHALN

[2] = Volume of distribution in Wistar Han rat; type: ADME; settings: in vivo
[3] = target: cAMP and cAMP-inhibited cGMP 3',5'-cyclic phosphodiesterase 10A (Homo sapiens, UniProt Q9Y233); assay: Inhibition of PDE10 (unknown origin)
[4] = target: High affinity cGMP-specific 3',5'-cyclic phosphodiesterase 9A (Homo sapiens, UniProt O76083); assay: Inhibition of PDE9 (unknown origin)
Phosphodiesterase 3 = Phosphodiesterase 3 (Homo sapiens, UniProt Q14432+Q13370); assay: Inhibition of PDE3 (unknown origin); type: protein assay
[5] = target: High affinity cAMP-specific and IBMX-insensitive 3',5'-cyclic phosphodiesterase 8A (Homo sapiens, UniProt O60658); assay: Inhibition of PDE8 (unknown origin)
High affinity cAMP-specific and IBMX-insensitive 3',5'-cyclic phosphodiesterase 8A, sequence (O60658 whole entry): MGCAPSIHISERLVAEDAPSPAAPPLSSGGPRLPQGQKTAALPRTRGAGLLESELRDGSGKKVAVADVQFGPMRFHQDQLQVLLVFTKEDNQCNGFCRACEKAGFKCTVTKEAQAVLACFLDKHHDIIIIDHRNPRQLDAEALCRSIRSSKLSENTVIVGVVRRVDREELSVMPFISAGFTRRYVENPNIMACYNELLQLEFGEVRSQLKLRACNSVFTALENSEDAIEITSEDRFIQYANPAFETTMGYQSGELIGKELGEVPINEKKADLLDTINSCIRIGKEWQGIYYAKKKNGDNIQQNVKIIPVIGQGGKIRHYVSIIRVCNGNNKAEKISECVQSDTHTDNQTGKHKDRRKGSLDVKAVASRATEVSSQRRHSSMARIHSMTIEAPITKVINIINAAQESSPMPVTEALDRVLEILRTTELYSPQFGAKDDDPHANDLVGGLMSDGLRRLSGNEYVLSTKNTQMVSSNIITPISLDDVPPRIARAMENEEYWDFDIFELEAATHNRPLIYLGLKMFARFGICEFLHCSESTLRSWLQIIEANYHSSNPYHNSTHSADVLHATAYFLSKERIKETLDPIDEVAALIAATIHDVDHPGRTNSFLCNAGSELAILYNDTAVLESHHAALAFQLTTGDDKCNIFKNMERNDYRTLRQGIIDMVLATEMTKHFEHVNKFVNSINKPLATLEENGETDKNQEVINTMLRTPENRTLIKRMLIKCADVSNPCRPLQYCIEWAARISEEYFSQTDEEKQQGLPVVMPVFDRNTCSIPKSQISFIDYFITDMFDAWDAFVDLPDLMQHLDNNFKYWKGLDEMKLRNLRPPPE

[6] = target: cGMP-specific 3',5'-cyclic phosphodiesterase (Homo sapiens, UniProt O76074); assay: Inhibition of PDE5 (unknown origin)
[7] = Half-life in Wistar Han rat; type: ADME; settings: in vivo
Phosphodiesterase 1 = Phosphodiesterase 1 (Homo sapiens, UniProt P54750+Q01064+Q14123); assay: Inhibition of PDE1 (unknown origin); type: protein assay
[8] = Inhibition of adenosine transporter in human HeLa cells assessed as reduction in [3H]adenosine uptake preincubated for 30 mins followed by [3H]adenosine addition and measured after 60 mins; type: ADME, cell-based
[9] = target: cGMP-dependent 3',5'-cyclic phosphodiesterase (Homo sapiens, UniProt O00408); assay: Inhibition of PDE2 (unknown origin)
cGMP-dependent 3',5'-cyclic phosphodiesterase, sequence (O00408 whole entry): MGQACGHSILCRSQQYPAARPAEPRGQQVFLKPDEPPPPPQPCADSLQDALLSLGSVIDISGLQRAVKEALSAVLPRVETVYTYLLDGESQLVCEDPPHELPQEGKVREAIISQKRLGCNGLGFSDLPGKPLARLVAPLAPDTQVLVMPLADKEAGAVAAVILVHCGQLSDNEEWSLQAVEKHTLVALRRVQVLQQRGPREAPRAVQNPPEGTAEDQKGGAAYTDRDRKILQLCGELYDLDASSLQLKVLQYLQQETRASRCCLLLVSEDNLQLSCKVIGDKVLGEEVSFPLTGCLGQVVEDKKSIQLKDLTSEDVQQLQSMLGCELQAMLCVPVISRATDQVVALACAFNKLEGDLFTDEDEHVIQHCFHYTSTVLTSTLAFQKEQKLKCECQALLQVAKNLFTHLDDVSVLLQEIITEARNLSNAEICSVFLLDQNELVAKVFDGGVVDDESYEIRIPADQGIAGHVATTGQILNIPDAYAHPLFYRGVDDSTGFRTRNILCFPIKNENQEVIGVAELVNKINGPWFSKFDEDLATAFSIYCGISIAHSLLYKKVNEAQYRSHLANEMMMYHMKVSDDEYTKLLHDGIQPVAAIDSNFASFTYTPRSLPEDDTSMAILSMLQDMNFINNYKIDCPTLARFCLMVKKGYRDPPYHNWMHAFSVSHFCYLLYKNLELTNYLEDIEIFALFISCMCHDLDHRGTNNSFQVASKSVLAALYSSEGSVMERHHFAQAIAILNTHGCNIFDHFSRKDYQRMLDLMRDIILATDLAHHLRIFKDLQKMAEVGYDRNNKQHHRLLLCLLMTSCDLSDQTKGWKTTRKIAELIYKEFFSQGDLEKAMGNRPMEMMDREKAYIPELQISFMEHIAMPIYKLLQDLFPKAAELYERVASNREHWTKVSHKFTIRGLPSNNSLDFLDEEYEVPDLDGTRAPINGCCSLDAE

Phosphodiesterase 6 = assay: Inhibition of PDE6 (unknown origin); type: protein assay, Homo sapiens
[10] = Plasma clearance in Wistar Han rat at 0.05 mg/kg; type: ADME, organism-based
Phosphodiesterase 4 = Phosphodiesterase 4 (Homo sapiens, UniProt P27815+Q08499+Q07343+Q08493); assay: Inhibition of PDE4 (unknown origin); type: protein assay
[11] = target: PI3-kinase p110-delta/p85-alpha (Homo sapiens, UniProt O00329); assay: Inhibition of N-terminal His6-tagged recombinant full length human p110delta/untagged recombinant full length human p85alpha expressed in baculovirus infected Sf21 insect cells using PIP2 as substrate preincubated for 15 mins followed by substrate addition and measured after 1 hr by HTRF assay
PI3-kinase p110-delta/p85-alpha, sequence (P27986 whole entry, one chain of several): as the sequence (P27986 whole entry) above

[12] = Lipophilicity, log D of the compound; type: physicochemical; settings: octanol/water
[13] = Protein binding in Wistar Han rat plasma; type: ADME, cell-free; settings: read-out: PPB (converted)
[14] = target: Dual 3',5'-cyclic-AMP and -GMP phosphodiesterase 11A (Homo sapiens, UniProt Q9HCR9); assay: Inhibition of PDE11 (unknown origin)
Dual 3',5'-cyclic-AMP and -GMP phosphodiesterase 11A, sequence (Q9HCR9 whole entry): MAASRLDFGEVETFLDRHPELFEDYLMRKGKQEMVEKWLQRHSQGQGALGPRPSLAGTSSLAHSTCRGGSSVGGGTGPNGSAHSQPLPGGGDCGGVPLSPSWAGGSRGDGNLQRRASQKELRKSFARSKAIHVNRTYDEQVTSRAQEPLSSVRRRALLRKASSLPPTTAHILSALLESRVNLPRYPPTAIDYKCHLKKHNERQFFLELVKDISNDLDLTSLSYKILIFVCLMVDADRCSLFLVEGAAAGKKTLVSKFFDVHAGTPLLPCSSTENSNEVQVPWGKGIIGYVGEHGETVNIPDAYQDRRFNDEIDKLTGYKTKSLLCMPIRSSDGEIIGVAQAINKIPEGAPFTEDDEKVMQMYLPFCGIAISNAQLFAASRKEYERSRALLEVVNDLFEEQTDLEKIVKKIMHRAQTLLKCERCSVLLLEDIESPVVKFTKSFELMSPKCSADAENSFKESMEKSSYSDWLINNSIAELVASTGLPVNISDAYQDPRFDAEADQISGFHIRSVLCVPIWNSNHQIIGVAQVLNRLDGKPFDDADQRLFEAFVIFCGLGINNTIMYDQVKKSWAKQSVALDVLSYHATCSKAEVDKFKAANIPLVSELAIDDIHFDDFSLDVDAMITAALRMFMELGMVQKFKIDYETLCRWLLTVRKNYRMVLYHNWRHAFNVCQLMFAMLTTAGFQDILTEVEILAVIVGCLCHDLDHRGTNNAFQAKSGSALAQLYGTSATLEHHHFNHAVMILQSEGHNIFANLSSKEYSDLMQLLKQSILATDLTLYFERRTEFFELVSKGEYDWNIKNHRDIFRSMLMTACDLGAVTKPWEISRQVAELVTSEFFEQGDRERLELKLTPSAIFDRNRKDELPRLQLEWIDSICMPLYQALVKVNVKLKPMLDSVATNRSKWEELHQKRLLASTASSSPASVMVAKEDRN

[15] = Unbound volume of distribution in Wistar Han rat; type: ADME; settings: in vivo
[16] = Intrinsic clearance in Wistar Han rat at 0.05 mg/kg; type: ADME, organism-based; settings: in vivo
[17] = target: T1, Phosphatidylinositol 4,5-bisphosphate 3-kinase catalytic subunit delta isoform (Homo sapiens, UniProt O00329); assay: Inhibition of PI3Kdelta in human Ramos cells assessed as reduction in anti-IgM-antibody-induced phosphorylation of AKT at Ser473 residue preincubated for 20 mins followed by anti-IgM antibody stimulation and measured after 30 mins by alphascreen assay; type: cell-based
T1 sequence (O00329 whole entry): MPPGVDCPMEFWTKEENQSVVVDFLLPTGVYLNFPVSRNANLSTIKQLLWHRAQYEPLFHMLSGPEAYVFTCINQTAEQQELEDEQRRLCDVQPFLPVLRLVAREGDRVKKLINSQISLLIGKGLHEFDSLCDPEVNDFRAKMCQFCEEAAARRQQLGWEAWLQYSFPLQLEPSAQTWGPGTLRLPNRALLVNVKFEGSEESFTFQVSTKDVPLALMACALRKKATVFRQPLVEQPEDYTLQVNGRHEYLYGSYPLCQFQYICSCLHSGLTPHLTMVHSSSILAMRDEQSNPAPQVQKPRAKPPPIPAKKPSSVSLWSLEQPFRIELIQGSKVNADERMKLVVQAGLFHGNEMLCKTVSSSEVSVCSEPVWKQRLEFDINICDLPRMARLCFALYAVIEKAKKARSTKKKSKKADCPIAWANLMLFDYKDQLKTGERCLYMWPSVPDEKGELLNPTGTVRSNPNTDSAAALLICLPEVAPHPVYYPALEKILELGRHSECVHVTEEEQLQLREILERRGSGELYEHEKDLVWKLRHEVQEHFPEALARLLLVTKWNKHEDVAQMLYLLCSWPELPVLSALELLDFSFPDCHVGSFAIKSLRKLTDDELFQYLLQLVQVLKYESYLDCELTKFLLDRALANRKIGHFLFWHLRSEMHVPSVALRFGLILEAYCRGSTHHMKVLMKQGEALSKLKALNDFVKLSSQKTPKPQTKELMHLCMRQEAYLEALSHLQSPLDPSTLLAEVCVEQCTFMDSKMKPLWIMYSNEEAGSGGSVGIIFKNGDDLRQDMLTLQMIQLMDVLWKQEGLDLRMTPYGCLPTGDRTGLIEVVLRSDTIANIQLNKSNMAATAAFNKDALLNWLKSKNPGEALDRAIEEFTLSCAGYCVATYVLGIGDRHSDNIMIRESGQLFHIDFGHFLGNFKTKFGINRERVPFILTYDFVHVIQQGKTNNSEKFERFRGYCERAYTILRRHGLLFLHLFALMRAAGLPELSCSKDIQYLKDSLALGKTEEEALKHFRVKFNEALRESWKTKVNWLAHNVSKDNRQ

Phosphodiesterase 7 = Phosphodiesterase 7 (Homo sapiens, UniProt Q13946+Q9NP56); assay: Inhibition of PDE7 (unknown origin); type: protein assay
[18] = Half-life in Beagle dog; type: ADME, Canis lupus familiaris; settings: in vivo
[19] = Unbound volume of distribution in Beagle dog; type: ADME, Canis lupus familiaris; settings: in vivo
[20] = Plasma clearance in Beagle dog at 0.05 mg/kg; type: ADME, organism-based, Canis lupus familiaris
[21] = Intrinsic clearance in Beagle dog at 0.05 mg/kg; type: ADME, organism-based, Canis lupus familiaris; settings: in vivo
[22] = Volume of distribution in Beagle dog; type: ADME, Canis lupus familiaris; settings: in vivo
[23] = Protein binding in Beagle dog plasma; type: ADME, cell-free, Canis lupus familiaris; settings: read-out: PPB (converted)
[24] = Oral bioavailability in Wistar Han rat; type: ADME, organism-based; settings: in vivo
[25] = Plasma clearance in Wistar Han rat at 0.5 mg/kg, iv or 1 mg/kg, po; type: ADME, organism-based
[26] = Intrinsic clearance in Wistar Han rat at 0.5 mg/kg, iv or 1 mg/kg, po; type: ADME, organism-based; settings: in vivo
Homo sapiens = organism: Homo sapiens; assay: Selectivity ratio of IC50 for N-terminal His6-tagged recombinant full length human p110alpha/untagged recombinant full length human p85alpha expressed in baculovirus infected Sf21 insect cells to IC50 for N-terminal His6-tagged recombinant full length human p110delta/untagged recombinant full length human p85alpha expressed in baculovirus infected Sf21 insect cells

IC50 [1] [nM] | Vd [2] [L/kg] | half-life [7] [min] | IC50 [8] [nM] | clearance [10] [mL/min/kg] | IC50 [11] [nM] | logD [12] | fraction unbound [13] | Vdu [15] [L/kg] | IC50 [17] [nM] | Compound | also measured
94 | 1.8 | 24 | 7250 | 58 | 1.6 | 0.8 | 0.49 | 4 | 24 | CCC(=O)N1CC[C@H](Nc2ncnc3c2nc(-c2cnn(CC)c2C)n3C)C1 | IC50 [3]: > 20000 nM; IC50 [4]: > 20000 nM; IC50 (Phosphodiesterase 3): > 20000 nM; IC50 [5]: > 20000 nM; IC50 [6]: > 20000 nM; IC50 (Phosphodiesterase 1): > 20000 nM; IC50 [9]: > 20000 nM; IC50 (Phosphodiesterase 6): > 20000 nM; IC50 (Phosphodiesterase 4): 8400 nM; IC50 [14]: > 20000 nM; CL [16]: 370 mL/min/kg; IC50 (Phosphodiesterase 7): > 20000 nM
262 | 1.1 | 18 | 3130 | 50 |  | 1.7 | 0.42 | 3 |  | CC[C@H](Nc1ncnc2c1nc(-c1cnn(CC)c1C)n2C)C(=O)N1C[C@@H](C)O[C@@H](C)C1 | half-life [18]: 72 min; Vdu [19]: 2 L/kg; clearance [20]: 7.9 mL/min/kg; CL [21]: 25 mL/min/kg; Vd [22]: 0.9 L/kg; CL [16]: 290 mL/min/kg; fraction unbound [23]: 0.42
169 | 0.8 | 24 | 7480 |  | 5.3 | 1.2 | 0.33 | 2 | 190 | CCn1ncc(-c2nc3c(O[C@H]4CCN(C(=O)C5CC5)C4)ncnc3n2C)c1C | half-life [18]: 162 min; bioavailability [24]: 52%; Vdu [19]: 2 L/kg; clearance [20]: 4.1 mL/min/kg; clearance [25]: 23 mL/min/kg; CL [21]: 8 mL/min/kg; Vd [22]: 0.9 L/kg; CL [26]: 98 mL/min/kg; fraction unbound [23]: 0.59
35 | 1.7 | 12 | 9190 | 95 | 0.5 | 0.8 | 0.52 | 3 | 16 | CCn1ncc(-c2nc3c(N[C@H]4CCN(C(=O)C5CCOCC5)C4)ncnc3n2C)c1C | IC50 [3]: > 20000 nM; IC50 [4]: > 20000 nM; IC50 (Phosphodiesterase 3): > 20000 nM; IC50 [5]: > 20000 nM; IC50 [6]: > 20000 nM; IC50 (Phosphodiesterase 1): > 20000 nM; clearance [25]: 95 mL/min/kg; IC50 [9]: > 20000 nM; IC50 (Phosphodiesterase 6): > 20000 nM; IC50 (Phosphodiesterase 4): > 20000 nM; IC50 [14]: > 20000 nM; IC50 (Phosphodiesterase 7): > 20000 nM
904 |  |  | > 10000 |  |  |  |  |  | 2210 | CCC(=O)N1CC(Nc2ncnc3c2nc(-c2cnn(CC)c2C)n3C)C1 | Ratio IC50 (Homo sapiens): 16
2950 |  |  | 4500 |  | 68 |  |  |  | 970 | CCn1ncc(-c2nc3c(Oc4csc(C(=O)N5CCOCC5)c4)ncnc3n2C)c1C | 
> 10000 |  |  | > 10000 |  | 294 |  |  |  | 8330 | CCn1ncc(-c2nc3c(CC4CCN(C(=O)C5CCOCC5)C4)ncnc3n2C)c1C (racemic) | 
90 |  |  | 5520 |  | 11 |  |  |  | 153 | CCn1ncc(-c2nc3c(N[C@H]4CC[C@@H](C(=O)N5CCOCC5)C4)ncnc3n2C)c1C | 
540 |  |  | > 1000 |  | 26 |  |  |  | 187 | CCC(=O)N1CC[C@@H](Nc2ncnc3c2nc(-c2cnn(CC)c2C)n3C)C1 | 
338 |  |  | 3910 |  |  |  |  |  | 309 | CCC(=O)N1CCC[C@H](Nc2ncnc3c2nc(-c2cnn(CC)c2C)n3C)C1 | 
